Measurements from ChEMBL document CHEMBL1201862, “PubChem BioAssay data set” (2004).
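Grown in 96-well plates, cells were treated for 48 hours with each compound at five concentrations. Insufficient inhibition: endpoint recorded as highest concentration tested. GI50: concentration for 50% inhibition of growth.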 Activity calls are given as the source filed them. Rule as the data show it: active = GI50 up to about 1.1 µM and inactive = higher.

Legend:
Experiment in all cases: NCI anticancer screen, dose series, 48 h
IGROV-1 = tested on: IGROV-1
SN12C = tested on: SN12C
786-0 = tested on: 786-0
HCT-116 = tested on: HCT-116
ACHN = tested on: ACHN
SK-MEL-28 = tested on: SK-MEL-28
DU-145 = tested on: DU-145
SK-MEL-5 = tested on: SK-MEL-5
CCRF-CEM = tested on: CCRF-CEM
MDA-MB-231 = tested on: MDA-MB-231
K562 = tested on: K562
SF-268 = tested on: SF-268
NCI-H226 = tested on: NCI-H226
OVCAR-5 = tested on: OVCAR-5
COLO 205 = tested on: COLO 205
SNB-75 = tested on: SNB-75
HOP-92 = tested on: HOP-92

Measured: GI50

CCn1c(CCCc2nc3c(=O)n(C)c(=O)n(C)c3[nH]2)nc2c1c(=O)n(C)c(=O)n2C
inactive: IGROV-1 > 100 µM | SN12C 46 µM | 786-0 > 100 µM | HCT-116 > 100 µM | ACHN > 100 µM | SK-MEL-28 > 100 µM | DU-145 > 100 µM | SK-MEL-5 14 µM | CCRF-CEM > 100 µM | MDA-MB-231 > 100 µM | K562 75.7 µM | SF-268 > 100 µM | NCI-H226 14.8 µM | OVCAR-5 > 100 µM | COLO 205 12.1 µM

CCN1CC2=C(N=c3s/c(=C\c4ccc(Cl)cc4)c(=O)n3C2c2ccc(Cl)cc2)/C(=C/c2ccc(Cl)cc2)C1 (stereo not given)
inactive: IGROV-1 67.3 µM | 786-0 10.4 µM | HCT-116 44.1 µM | ACHN 58.7 µM | SK-MEL-28 > 100 µM | DU-145 > 100 µM | SK-MEL-5 > 100 µM | CCRF-CEM 73.3 µM | SNB-75 2.37 µM | MDA-MB-231 25.6 µM | K562 > 100 µM | SF-268 24.9 µM | NCI-H226 37 µM | OVCAR-5 > 100 µM | COLO 205 > 100 µM

COC(=O)C1(Cc2ccccc2)Cc2ccccc2C1O (stereo not given)
inactive: IGROV-1 > 100 µM | SN12C > 100 µM | 786-0 > 100 µM | HCT-116 > 100 µM | ACHN > 100 µM | SK-MEL-28 > 100 µM | DU-145 > 100 µM | SK-MEL-5 37.3 µM | CCRF-CEM > 100 µM | SNB-75 87.7 µM | MDA-MB-231 > 100 µM | K562 > 100 µM | SF-268 > 100 µM | NCI-H226 > 100 µM | OVCAR-5 > 100 µM | COLO 205 > 100 µM

COc1cc2c(cc1C)NC(=O)/C2=C\c1ccncc1
inactive: IGROV-1 2.43 µM | SN12C 6.15 µM | 786-0 5.35 µM | HOP-92 26.1 µM | HCT-116 2.34 µM | ACHN 6.05 µM | SK-MEL-28 11.1 µM | DU-145 3.09 µM | SK-MEL-5 2.73 µM | CCRF-CEM 2.75 µM | SNB-75 13.4 µM | K562 3.66 µM | SF-268 3.83 µM | OVCAR-5 10.9 µM | COLO 205 7.19 µM

O=C(O)C1C2CCC(O2)C1C(=O)Nc1cccc2cccnc12 (stereo not given)
inactive: IGROV-1 > 100 µM | SN12C > 100 µM | 786-0 > 100 µM | HCT-116 > 100 µM | ACHN > 100 µM | SK-MEL-28 > 100 µM | DU-145 > 100 µM | SNB-75 > 100 µM | MDA-MB-231 > 100 µM | K562 > 100 µM | OVCAR-5 > 100 µM

C/C=C/[C@@]1(OC(=O)c2ccccc2)C[C@@H]2CCCC[C@@H]21
inactive: IGROV-1 17 µM | SN12C 17.5 µM | 786-0 17.7 µM | HCT-116 16 µM | ACHN 17.7 µM | SK-MEL-28 17.9 µM | DU-145 17.5 µM | SK-MEL-5 15.9 µM | CCRF-CEM 18.3 µM | SNB-75 14.2 µM | MDA-MB-231 20.6 µM | K562 19.8 µM | SF-268 17.1 µM | NCI-H226 16.5 µM | OVCAR-5 17.1 µM

Cn1c2ccccc2c(=O)c2cccc(C(=O)NCC(=O)O)c21
inactive: IGROV-1 85.1 µM | SN12C > 100 µM | 786-0 > 100 µM | HCT-116 > 100 µM | ACHN > 100 µM | SK-MEL-28 > 100 µM | DU-145 > 100 µM | SK-MEL-5 > 100 µM | SNB-75 88.9 µM | MDA-MB-231 > 100 µM | K562 > 100 µM | SF-268 > 100 µM | NCI-H226 85.9 µM | OVCAR-5 > 100 µM | COLO 205 > 100 µM

N/N=C1\CCCc2c1no[n+]2[O-]
inactive: IGROV-1 > 100 µM | SN12C > 100 µM | 786-0 > 100 µM | HCT-116 > 100 µM | ACHN > 100 µM | SK-MEL-28 > 100 µM | DU-145 > 100 µM | SK-MEL-5 > 100 µM | CCRF-CEM > 100 µM | SNB-75 > 100 µM | MDA-MB-231 > 100 µM | K562 > 100 µM | SF-268 > 100 µM | NCI-H226 > 100 µM | OVCAR-5 > 100 µM | COLO 205 > 100 µM

COc1ccc(/N=N/C(=N/NC(=O)c2ccccc2)c2ccc(N(CCC#N)CCC#N)cc2C)cc1
inactive: IGROV-1 42.8 µM | SN12C 56.1 µM | 786-0 47.5 µM | HCT-116 29.9 µM | ACHN 54.3 µM | DU-145 81.3 µM | SK-MEL-5 18.2 µM | CCRF-CEM 36.7 µM | SNB-75 43 µM | MDA-MB-231 50.9 µM | K562 19.5 µM | SF-268 58.2 µM | NCI-H226 43.8 µM | OVCAR-5 > 100 µM | COLO 205 32.8 µM

COc1c(-c2ccc(F)cc2)oc2cc(O)cc(O)c2c1=O
inactive: IGROV-1 21.4 µM | SN12C 30.3 µM | 786-0 32.8 µM | HOP-92 35.6 µM | HCT-116 30.5 µM | ACHN 30.7 µM | SK-MEL-28 46.9 µM | DU-145 29 µM | SK-MEL-5 16.5 µM | CCRF-CEM 29.4 µM | SNB-75 19.2 µM | MDA-MB-231 20 µM | K562 38.9 µM | SF-268 40 µM | OVCAR-5 25.5 µM | COLO 205 20.9 µM

Cc1ccc(S(=O)(=O)N/N=C2\C3CC4CC(C3)C2C4)cc1 (stereo not given)
inactive: IGROV-1 > 100 µM | SN12C > 100 µM | 786-0 > 100 µM | HCT-116 > 10 µM | SK-MEL-28 > 100 µM | DU-145 > 10 µM | SK-MEL-5 > 100 µM | CCRF-CEM > 100 µM | SNB-75 > 100 µM | MDA-MB-231 > 100 µM | K562 > 100 µM | NCI-H226 > 100 µM | OVCAR-5 > 100 µM | COLO 205 > 100 µM

N#CC(CCN1CCC(Nc2ccccc2)(c2nnnn2C2CCCCC2)CC1)(c1ccccc1)c1ccccc1
inactive: IGROV-1 > 100 µM | SN12C > 100 µM | 786-0 > 100 µM | HCT-116 > 100 µM | ACHN > 100 µM | SK-MEL-28 > 100 µM | DU-145 81.3 µM | SK-MEL-5 > 100 µM | CCRF-CEM > 100 µM | SNB-75 > 100 µM | MDA-MB-231 > 100 µM | K562 > 100 µM | SF-268 > 100 µM | NCI-H226 > 100 µM | OVCAR-5 > 100 µM | COLO 205 > 100 µM

Cc1ccccc1C(O)(c1nccn1C)c1nccn1C
inactive: IGROV-1 > 100 µM | SN12C > 100 µM | 786-0 > 100 µM | HOP-92 > 100 µM | HCT-116 > 100 µM | ACHN > 100 µM | SK-MEL-28 > 100 µM | DU-145 > 100 µM | SK-MEL-5 > 100 µM | CCRF-CEM > 100 µM | SNB-75 > 100 µM | K562 > 100 µM | SF-268 > 100 µM | NCI-H226 > 100 µM | OVCAR-5 > 100 µM | COLO 205 > 100 µM
